Measurements published in patent US20260295053A1, “COMPOUNDS FOR DEGRADATION AND INHIBITION OF KRAS (G12D) PROTEIN” (Shenzhen Ionova Life Science Co., Ltd., priority 2023, published 2026).

Biological target: T1, KRAS (G12D) (Homo sapiens, UniProt P01116, G12D)
T1 construct: in-cell western with KRAS G12D antibody after 24 h
Assay: KRAS (G12D) cellular degradation assay in AsPC-1 cells
Type: cell-based
Details: 24 hours, antibody fluorescence (Odyssey CLX), DC50 half-maximal degradation concentration
Description: ASPC-1 and PK-59 cellular assays ASPC-1 (ATCC cat. CRL-1682) and PK-59 (Nanjing Cobioer, Cat. No. CBP61184) were used in KRAS cellular degradation, pERK inhibition and proliferation assays. The two cell lines were maintained following vendor's instructions. For monitoring KRAS (G12D) cellular degradation and pERK biomarker inhibition, cells were seeded into a 96-well plate with 22,000 and 16,000 cells/well for assays in ASPC-1 and PK-59, respectively. Cells were incubated at 37° C. with 5% CO2 and cell density was monitored until ^~90% confluency was reached. Compounds were serially diluted at a 1:3 ratio and dispensed into each well at final concentrations ranging from […] to 1.5 nM. After incubation for 24 hours, the culture media were removed and the cells were subjected to fixation, permeabilization and blocking (Intercept blocking buffer, Li-cor). For KRAS (G12D) degradation, the cells were treated with primary antibody (KRAS G12D antibody, Cell Signaling Technologies, Cat. No. CST14429) and for β-actin (β-actin mAb, Beyotime, Cat. No. AF-5001), and followed by secondary antibodies, Anti-rabbit IgG (H+L) (DyLight™ 800 4×PEG Conjugate) or IRDye® 680RD Goat anti-Mouse IgG. For pERK inhibition assay, cells were treated with primary antibodies for pERK (Phospho-p44/42 MAPK (Erk1/2) (Thr202/Tyr204) (D13.14.4E) XP® Rabbit mAb, Cell Signaling Technologies, Cat. No. CST-4370) and β-actin (β-actin mAb, Beyotime, Cat. No. AF-5001), and followed by secondary antibodies, Anti-rabbit IgG (H+L) (DyLight™ 800 4×PEG Conjugate) or IRDye® 680RD Goat anti-Mouse IgG. Fluorescence signals were read on Odyssey CLX instrument. For cell proliferation assays, cells were seeded into a 96-well plate at 3,500 and 800 cells/well for assays in ASPC-1 and PK-59, respectively. Cells were incubated at 37° C. with 5% CO2 for overnight. Compounds were serially diluted at a 1:3 ratio and dispensed into each well at final concentrations ranging from […] to 1.5 nM. After incubation for 6 days, cell viability reagent (CellTiter Glo, Promega, Cat. No. G7573) was added to each well and luminescence was recorded on Molecular Devices Spectramax iD3 instrument. IC50, half-maximal inhibitory concentration for pERK inhibition or cell proliferation, and DC50, half-maximal degradation concentration in KRAS (G12D) cellular degradation were determined by fitting the corresponding dose response curves using GraphPad Prism software.
Wherein “A” means the value <10 nM, “B” means 10 nM<the value <100 nM, “C” means 100 nM<the value <1000 nM, and “D” means the value >1000 nM, in which, the value means the value of DC50 or IC50. NT means not tested.

T1 sequence (P01116 1-188 isoform P01116-2 G12D): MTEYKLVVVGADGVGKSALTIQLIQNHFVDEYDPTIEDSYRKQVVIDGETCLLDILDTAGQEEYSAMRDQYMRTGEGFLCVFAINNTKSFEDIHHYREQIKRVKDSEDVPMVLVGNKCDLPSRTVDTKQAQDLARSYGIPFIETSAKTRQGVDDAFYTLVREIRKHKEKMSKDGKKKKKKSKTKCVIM

Structure (SMILES) | DC50 [nM]
Cc1ncsc1-c1ccc([C@H](CO)NC(=O)[C@@H]2C[C@@H](O)CN2C(=O)[C@H](C(C)C)n2cc(-c3ccc(COc4c(-c5c(C)c(F)cc6[nH]ncc56)c(C5CC5)cc5c(N6C[C@H]7C[C@@H]6CN7)nc(OC6CCOCC6)nc45)cc3)nn2)cc1 (single isomer, unassigned) [Example 5A] | < 10
Cc1ncsc1-c1ccc([C@H](CO)NC(=O)[C@@H]2C[C@@H](O)CN2C(=O)[C@H](C(C)C)n2cc(-c3ccc(COc4c(-c5c(C)c(F)cc6[nH]ncc56)c(C5CC5)cc5c(N6C[C@H]7C[C@@H]6CN7)nc(OC6CCOCC6)nc45)cc3)nn2)cc1 (single isomer, unassigned) [Example 5B] | > 1000
CO[C@@H](C)COc1nc(N2C[C@H]3C[C@@H]2CN3)c2cc(C3CC3)c(-c3c(C)c(F)cc4n[nH]cc34)c(OCc3ccc(-c4cn([C@H](C(=O)N5C[C@H](O)C[C@H]5C(=O)N[C@@H](CO)c5ccc(-c6c(C)noc6C)cc5)C(C)C)nn4)cc3)c2n1 (single isomer, unassigned) [Example 6B] | > 1000
CCn1nccc1-c1ccc(CNC(=O)[C@@H]2C[C@@H](O)CN2C(=O)[C@H](C(C)C)n2cc(-c3ccc(COc4c(-c5c(C)c(F)cc6[nH]ncc56)c(C5CC5)cc5c(N6C[C@H]7C[C@@H]6CN7)nc(OC[C@H](C)OC)nc45)cc3)nn2)cc1 (single isomer, unassigned) [Example 7B] | > 1000
CO[C@@H](C)COc1nc(N2C[C@H]3C[C@@H]2CN3)c2cc(C3CC3)c(-c3c(C)c(F)cc4[nH]ncc34)c(OCc3ccc(-c4cn([C@H](C(=O)N5C[C@H](O)C[C@H]5C(=O)NCc5ccc(-c6scnc6C)cc5)C(C)C)nn4)cc3)c2n1 (single isomer, unassigned) [Example 11B] | > 1000
CO[C@@H](C)COc1nc(N2CC3CCC(C2)N3)c2cc(C3CC3)c(-c3c(C)c(F)cc4[nH]ncc34)c(OCc3ccc(-c4cn([C@H](C(=O)N5C[C@H](O)C[C@H]5C(=O)N[C@@H](CO)c5ccc(-c6scnc6C)cc5)C(C)C)nn4)cc3)c2n1 (single isomer, unassigned) [Example 12B] | > 1000
CCn1nccc1-c1ccc([C@H](CO)NC(=O)[C@@H]2C[C@@H](O)CN2C(=O)[C@H](C(C)C)n2cc(-c3ccc(COc4c(-c5c(C)c(F)cc6[nH]ncc56)c(C5CC5)cc5c(N6CC7CCC(C6)N7)nc(OC[C@H](C)OC)nc45)cc3)nn2)cc1 (single isomer, unassigned) [Example 13B] | > 1000
CCn1nccc1-c1ccc([C@H](CO)NC(=O)[C@@H]2C[C@@H](O)CN2C(=O)[C@H](C(C)C)n2cc(-c3ccc(COc4c(-c5c(C)c(F)cc6[nH]ncc56)c(C5CC5)cc5c(N6C[C@H]7C[C@@H]6CN7)nc(OC6CCOCC6)nc45)cc3)nn2)cc1 (single isomer, unassigned) [Example 16B] | > 1000
CO[C@@H](C)COc1nc(N(C)[C@H]2CCNC2)c2cc(C3CC3)c(-c3c(C)c(F)c(F)c4[nH]ncc34)c(OCc3ccc(-c4cn([C@H](C(=O)N5C[C@H](O)C[C@H]5C(=O)N[C@H](c5ccc(-c6scnc6C)cc5)C(C)O)C(C)C)nn4)cc3)c2n1 (stereo in doubt) [Example 145, (2S,4R)-1-((2S)-2-(4-(4-(((6-cyclopropyl-7-(6,7-difluoro-5-methyl-1H-indazol-4-yl)-2-((S)-2-methoxypropoxy)-4-(methyl((S)-pyrrolidin-3-yl)amino)quinazolin-8-yl)oxy)methyl)phenyl)-1H-1,2,3-triazol-1-yl)-3-methylbutanoyl)-4-hydroxy-N-((1R,2R)-2-hydroxy-1-(4-(4-methylthiazol-5-yl)phenyl)propyl)pyrrolidine-2-carboxamide] | < 10
CCn1nccc1-c1ccc([C@H](CO)NC(=O)[C@@H]2C[C@@H](O)CN2C(=O)[C@H](C(C)C)n2cc(-c3ccc(COc4c(-c5c(C)c(F)cc6[nH]ncc56)c(C5CC5)cc5c(N6CCNCCC6C)nc(OC[C@H](C)OC)nc45)cc3)nn2)cc1 (stereo in doubt) [Example 153, (2S,4R)-1-((2S)-2-(4-(4-(((6-cyclopropyl-7-(6-fluoro-5-methyl-1H-indazol-4-yl)-2-((S)-2-methoxypropoxy)-4-((S)-7-methyl-1,4-diazepan-1-yl)quinazolin-8-yl)oxy)methyl)phenyl)-1H-1,2,3-triazol-1-yl)-3-methylbutanoyl)-N—((R)-1-(4-(1-ethyl-1H-pyrazol-5-yl)phenyl)-2-hydroxyethyl)-4-hydroxypyrrolidine-2-carboxamide] | 10 to 100
CCn1nccc1-c1ccc([C@H](CO)NC(=O)[C@@H]2C[C@@H](O)CN2C(=O)[C@H](C(C)C)n2cc(-c3ccc(COc4c(-c5c(C)c(F)cc6[nH]ncc56)c(C5CC5)cc5c(N6CC7COCC(C6)N7)nc(OC[C@H](C)OC)nc45)cc3)nn2)cc1 [Example 37, (2S,4R)-1-((2S)-2-(4-(4-(((4-(3-oxa-7,9-diazabicyclo[3.3.1]nonan-7-yl)-6-cyclopropyl-7-(6-fluoro-5-methyl-1H-indazol-4-yl)-2-((S)-2-methoxypropoxy)quinazolin-8-yl)oxy)methyl)phenyl)-1H-1,2,3-triazol-1-yl)-3-methylbutanoyl)-N—((R)-1-(4-(1-ethyl-1H-pyrazol-5-yl)phenyl)-2-hydroxyethyl)-4-hydroxypyrrolidine-2-carboxamide] | 10 to 100
CCn1nccc1-c1ccc([C@H](CO)NC(=O)[C@@H]2C[C@@H](O)CN2C(=O)[C@H](C(C)C)n2cc(-c3ccc(COc4c(-c5c(C)c(F)cc6[nH]ncc56)c(C5CC5)cc5c(N6CCC[C@](C)(O)C6)nc(OC[C@H](C)OC)nc45)cc3)nn2)cc1 [Example 39, (2S,4R)-1-((2S)-2-(4-(4-(((6-cyclopropyl-7-(6-fluoro-5-methyl-1H-indazol-4-yl)-4-((S)-3-hydroxy-3-methylpiperidin-1-yl)-2-((S)-2-methoxypropoxy)quinazolin-8-yl)oxy)methyl)phenyl)-1H-1,2,3-triazol-1-yl)-3-methylbutanoyl)-N—((R)-1-(4-(1-ethyl-1H-pyrazol-5-yl)phenyl)-2-hydroxyethyl)-4-hydroxypyrrolidine-2-carboxamide] | 10 to 100
CCn1nccc1-c1ccc([C@H](CO)NC(=O)[C@@H]2C[C@@H](O)CN2C(=O)[C@H](C(C)C)n2cc(-c3ccc(COc4c(-c5c(C)c(F)c(F)c6[nH]ncc56)c(C5CCC5)cc5c(N6C[C@@H]7C[C@H]6CN7)nc(OC[C@H](C)OC)nc45)cc3)nn2)cc1 [Example 106, (2S,4R)-1-((2S)-2-(4-(4-(((4-((1S,4S)-2,5-diazabicyclo[2.2.1]heptan-2-yl)-6-cyclobutyl-7-(6,7-difluoro-5-methyl-1H-indazol-4-yl)-2-((S)-2-methoxypropoxy)quinazolin-8-yl)oxy)methyl)phenyl)-1H-1,2,3-triazol-1-yl)-3-methylbutanoyl)-N—((R)-1-(4-(1-ethyl-1H-pyrazol-5-yl)phenyl)-2-hydroxyethyl)-4-hydroxypyrrolidine-2-carboxamide] | 10 to 100
CO[C@@H](C)COc1nc(N2C[C@@H]3C[C@H]2CN3)c2cc(C3CC3)c(-c3c(C)c(F)cc4[nH]ncc34)c(OCc3ccc(-c4cn([C@H](C(=O)N5C[C@H](O)C[C@H]5C(=O)N[C@H](C#Cc5cnccc5Cl)CO)C(C)C)nn4)cc3)c2n1 [Example 108, (2S,4R)-1-((2S)-2-(4-(4-(((4-((1S,4S)-2,5-diazabicyclo[2.2.1]heptan-2-yl)-6-cyclopropyl-7-(6-fluoro-5-methyl-1H-indazol-4-yl)-2-((S)-2-methoxypropoxy)quinazolin-8-yl)oxy)methyl)phenyl)-1H-1,2,3-triazol-1-yl)-3-methylbutanoyl)-N—((R)-4-(4-chloropyridin-3-yl)-1-hydroxybut-3-yn-2-yl)-4-hydroxypyrrolidine-2-carboxamide] | 10 to 100
